As usually defined, the melting point is the temperature, or range, at which the solid turns liquid. As for `CC(C)(CO)CCCC(O)CCCC(O)CCCC(C)(C)CO` (stereo not drawn), the melting point is 85 to 86 °C.
The result for `C[C@@]1(F)[C@H](OC(=O)c2ccccc2)[C@@H](COC(=O)c2ccccc2)O[C@@H]1Br` reads 59 to 61 °C; that for `O=C(Nc1ccc(N2CCN(C(=O)Nc3ccc(OCCO)cc3C(F)(F)F)CC2)cc1)Nc1cccc2c1OCC2`, 218 to 220 °C.
The result for `Cc1cc(-n2ccnc2)c2cccc(OCc3c(Cl)ccc(S(=O)(=O)N4CCC[C@H]4C(=O)NCC4CCN(CC(=O)OC(C)(C)C)CC4)c3Cl)c2n1` reads 100 °C; that for `O=c1[nH][nH]c(C(F)(F)F)c1Cc1ccc2c(c1)OCO2`, 196 to 197 °C; that for `O=C(O)Cn1cc(Cc2nc3c(F)c(F)cc(F)c3s2)c2ccc(F)cc21`, 200 to 203 °C.
Turning to `Cc1sc2ccccc2c1Br`, the melting point fell in the range of 39 to 40 °C.
`Cc1cc(Nc2ncnc3ccc(-n4ccnc4)cc23)ccc1OCc1ccccn1` displayed a melting point of 208 to 211 °C.
The result for `COc1cccc(OC)c1C(=O)Nc1nnc(C(C)(C)CSC)s1` reads 165 to 167 °C; that for `COC(=O)c1cc([N+](=O)[O-])ccc1ON=C(C)c1ccccc1`, 108 to 110 °C.
The result for `CCCCOc1c(N(C)C(=O)OC(C)(C)C)n(CC(C)(C)C)c(=O)c2ccc(O)cc12` reads 196 to 197 °C; that for `Cc1ccc(N2C(=O)C3=C(SCCO3)C2OC(=O)N2CCN(C)CC2)nc1` (stereo not drawn), 183 °C.
Compound `CCCNC(=O)Oc1ccc(C(O)(CC)c2ccc(F)cc2)cc1` (stereo not drawn) had a melting point of 107 to 108 °C.
In the case of `Cc1nc(NCCc2ccccc2)c2c(n1)N(c1ccccc1)CC2`, the melting point is 105 to 106 °C.
The result for `O=C(Nc1ccccc1C(F)(F)F)ONC1=Nc2ccc(Cl)cc2C(c2ccccc2)=NC1` reads 190 °C.
With `Cc1c(-c2ccncc2)[nH]c2c1C(=O)CC(C)C2` (stereo not drawn) the figure was 247 to 248 °C.
In turn, `N#Cc1c(OC(F)(F)Br)ncnc1N1CCc2ccccc2CC1` returned a melting point of 95 to 100 °C.
For the compound `O=C1COc2cc3[nH]c(C(=O)O)cc3cc2N1`, the melting point was in the range of 231 to 237 °C.
With `CC(=O)c1ccc(OCCCCl)cc1O` the figure was 74 °C.
With `CCCNC(=O)c1ccc(C)c(-c2nc(N(C)CCCN(C)C)nc3c2ccc(=O)n3-c2c(F)cccc2F)c1` the figure was 104 to 109 °C.
`CCc1cc(OC)cc2nc(-c3ccc(OC)cc3)oc12`: the melting point stood at 85 °C.
Consider `O=C1NCCc2sccc21`, for which the melting point is 94 °C.
In turn, `N#Cc1ccc(NCc2cc3c(cc2O)CCCO3)cc1` gave a melting point of 162 to 164 °C.
With `COc1cc(C(=O)O)c2oc(-c3ccc(OC)c(F)c3)cc2c1` the figure was 254 to 256 °C; with `CN1Cc2c(-c3nnc(CCl)o3)ncn2-c2cccc(Cl)c2C1=O`, 201 to 203 °C; with `COc1ccc(OC)c2c1C[C@@H](O)[C@H](N1CCN(c3cccc(C(F)(F)F)c3)CC1)C2` (relative stereo), 184 to 187 °C.
The compound `CCCCCN1C(=O)C2(COc3cc(F)c(F)cc32)c2ccccc21` (stereo not drawn) registered a melting point of 48 to 50 °C.
With `COc1ccc(NC(=O)c2ccccc2C(c2ccc(O)cc2)c2ccc(O)cc2)c(OC)c1`, the melting point fell in the range of 122 to 124 °C.
Regarding `COc1ccc2c(c1)C(CCNC(C)=O)CN(Cc1ccccc1)C2` (stereo not drawn), the melting point lay within 123 to 125 °C.
The result for `C#CCn1cc(CO)c([N+](=O)[O-])c1` reads 60 °C.
Consider `Cc1c(-c2ccccn2)c(N2CC[C@H](N(C)C)C2)c2oc(C3CC3)nc2c1C#N`, for which the melting point is 150 to 151 °C.
The result for `Oc1ccc(-c2cccc3sc4ccccc4c23)cc1` reads 117 to 119 °C; that for `CN1CCN(Cc2ccc(NC(=O)c3cccc4cc(Oc5cc(N)ncn5)ccc34)cc2C(F)(F)F)CC1`, 127 to 130 °C; that for `Cc1cc(=O)[nH]c2c3c(cc(O)c12)OC(C)C(C)C3=O` (stereo not drawn), 300 °C.
Compound `COc1ccc(Cn2cc(C)c3ccc(C(=O)c4ccccc4)cc32)cc1` showed a melting point of 146 to 147 °C.
The result for `CNc1nc(SC)ncc1C#N` reads 189 to 190 °C; that for `CCn1ncc2c(Cl)c(C#N)cnc21`, 100 to 102 °C.
The result for `CC1=C(C(=O)Nc2cccc(C#N)c2)SCCO1` reads 119 to 121 °C.
As to `NC(=O)c1c(-c2ccc(F)cc2)cc2c3c1ccn3C(=O)CNC2`, the melting point fell in the range of 287 to 289 °C.
The compound `CCOC(=O)/C=C(C)/C(F)=C/C=C(C)/C=C/c1c(C)sc(C)c1C` gave a melting point of 73 to 75 °C.
Turning to `Cc1oc(-c2ccccc2)nc1CCOc1ccc(C=C2SC(=O)NC2=O)cn1`, the melting point fell in the range of 195 to 196 °C.
`CCSC1=CCC2C3CCC4=CC(=O)C=CC4(C)C3C(O)CC12C` (stereo not drawn) returned a melting point of 216 to 218 °C.
In turn, `O=Cc1cccc2ncc(-c3ccccc3)nc12` gave a melting point of 149 °C.
The result for `O=C(CCl)Nc1cc(Br)cc([N+](=O)[O-])c1NC(=O)CCl` reads 172 to 173 °C; that for `CCOC1=NS(=O)(=O)c2cc(NC(=O)CC)ccc21`, 188 to 192 °C; that for `CCNC(=O)c1cccc(F)c1Nc1nc(Nc2cc3c(cc2OC)CCN(CC(=O)N(C)C)CC3)ncc1Cl`, 95 to 105 °C.
The result for `COC(=O)c1cccc2nc(N3CCOCC3)n(Cc3ccc(-c4ccccc4-c4nnn[nH]4)cc3)c12` reads 163 to 167 °C.
For `CSc1ccc(OC(=O)OCc2ccccc2Cl)cc1`, the melting point is 49.5 to 50 °C.
Compound `Cc1cc(-c2cc(C(F)F)n3ncc(-c4nc(-c5ccc(N)nc5)no4)c3n2)ccc1Cl` returned a melting point of 243 °C.
`CCc1ccc(CCOc2ccc(C=C3SC(=O)NC3=O)cc2)nc1` showed a melting point of 166 to 167 °C.
With `Cc1ccc2sc3cc(F)ccc3c(=O)c2c1`, the melting point was 159 to 165 °C.
The compound `O=C1CCCc2nc3ccccc3c(NCc3ccccc3)c21` showed a melting point of 162 to 163 °C.
With `CCCn1c(-c2ccc(I)cc2)nc2cc(C#N)c(C#N)cc21` the figure was 208 to 209 °C; with `CC(Oc1ccc(Oc2ncc(Cl)cc2F)cc1)C(=O)O` (stereo not drawn), 95 to 97 °C.
`CSCC(C)(C)NC(=O)c1c(I)cccc1C(=O)Nc1ccc(-c2nnnn2C2CC2)cc1C` registered a melting point of 131 to 132 °C.
With `COC(=O)c1cc2c(C)ccc(C)c2n1C(=O)OC` the figure was 75 to 80 °C; with `CN(Cc1cc2cc([N+](=O)[O-])ccc2o1)C1Cc2ccc([N+](=O)[O-])cc2C1` (stereo not drawn), 109 to 111 °C; with `C=CCNC(=O)NCC1Cc2ccc(-c3ccc(=O)[nH]n3)cc2C1` (stereo not drawn), 208 to 209 °C.
The result for `Cc1ccc2c3c(ccc2n1)OCC(CN1CC=C(c2c[nH]c4ccccc24)CC1)O3` (stereo not drawn) reads 210 °C; that for `CC(=O)N1CCc2c(sc(C)c2C(=O)CN2CCC(c3noc4cc(F)ccc34)CC2)C1`, 92 to 94 °C; that for `Cc1ccc(C(=O)c2ccc3nc(Cl)nc(-c4cccc(Cl)c4)c3c2)cc1`, 156 °C.
The compound `CC(CC(=O)O)CC(=O)CCCCCCCCCCC(=O)O` (stereo not drawn) came in with a melting point of 84 to 85 °C.
The result for `CC(c1ccccc1)(c1ccc(OC(=O)CCl)cc1)c1ccc(OC(=O)CCl)cc1` reads 97 to 98 °C.
The result for `Cc1ccc2c(=O)[nH]c(N3CCN(C)CC3)cc2c1` reads 242 to 243 °C.
Take `O=C1COc2cccc3nc4c(c(c23)N1Cc1ccccc1)CCCC4`: the melting point lay within 166 to 168 °C.
The result for `O=C(O)[C@H](Cc1c[nH]c2ccccc12)NS(=O)(=O)c1ccc(F)cc1` reads 57 to 60 °C.
The result for `Cc1nc2c(O)c(CCC(=O)c3ccccc3F)c(C(=O)N(C)C)cc2n1C` reads 218 to 221 °C; that for `COC(=O)CCC(C)C1CCC2C3C(O)CC4CC(NC(=O)CNC(=O)OC(C)(C)C)CCC4(C)C3CC(O)C12C` (stereo not drawn), 110 to 114 °C.
In turn, `COC(=O)CCc1cc2cc(Cl)c(Cl)cc2n1S(=O)(=O)c1ccccc1` gave a melting point of 280 °C.
With `COC(=O)C1=C(C#N)NC(C)=C(C(=O)OC(C)C)C1c1cccc([N+](=O)[O-])c1` (stereo not drawn) the figure was 120 to 122 °C; with `O=C(c1ccc(F)cc1)N1CCc2cc(S(=O)(=O)N3CC(c4ccccc4)NC3=O)ccc21` (stereo not drawn), 134 °C; with `COc1cc(COc2ccc(N)nn2)c(Br)c(OC)c1OC`, 160 to 161 °C.
With `CCCc1ccc(CCNC(C)=O)cc1` the figure was 52 °C; with `COc1ccc2cccc(C(O)CNC(C)=O)c2c1` (stereo not drawn), 173 to 175 °C; with `CCCc1c2c(cc3c(=O)cc(C(=O)OCC)oc13)CC(C(=O)OCC)CC2` (stereo not drawn), 89.5 to 90.5 °C.
With `CNC(=O)n1cnc(C)c1Br`, the melting point is 98.4 to 100 °C.
The result for `NS(=O)(=O)c1ccccc1OC(Cl)=CCl` reads 147 to 149 °C.
Compound `CC1(C)CC(c2ccccc2)=NC1=Cc1ccccc1` had a melting point of 101 to 103 °C.
The compound `COc1cc(C(C)=O)ccc1OCCCN1CCN(c2n[nH]c3cc(F)ccc23)CC1` returned a melting point of 135 to 137 °C.
The result for `CNC1=NS(=O)(=O)N=C1NCCSCc1csc(N)n1` reads 200 to 201 °C; that for `CCOC(=O)C(O)=Cc1ccc(Cc2ccc(F)cc2)cn1`, 94 to 96 °C.
As for `CC(C)(C)c1cc(C(=S)SC(C)(C)c2ccccc2)cc(C(C)(C)C)c1O`, the melting point was in the range of 100 to 104 °C.
`O=C(NC12CC3CC(CC(C3)C1)C2)OCCc1cccs1` displayed a melting point of 67 to 69 °C.
The result for `Cc1nc2cnccc2n1-c1ccccc1` reads 134 to 136 °C.
With `CCCCCc1ccc(CCc2ccc(-c3ccc(CC)cc3F)cc2)cc1` the figure was 40 °C.
With `O=C(Nc1cccc2ccccc12)N1C(=O)C2(CCCCC2)NC12CCCCC2` the figure was 157 to 160 °C; with `COc1cc(Nc2c(C#N)cnc3cc(C#Cc4cnn(CCN5CCOCC5)c4)sc23)c(Cl)cc1Cl`, > 200 °C; with `Cc1ccc2nc(-c3cc(C(F)(F)F)nn3-c3ccc(S(C)(=O)=O)cc3)sc2c1`, 202 to 204 °C.

These data come from a melting point compilation (Tetko et al.; mined from patent text by program, amines drawn as free bases though some values may be those of a salt).
